From article PMC8507260, “A2E-induced inflammation and angiogenesis in RPE cells in vitro are modulated by PPAR-α, -β/δ, -γ, and RXR antagonists and by norbixin” (Aging (Albany NY), 2021)
pIC50: −log10 of the molar value.

Biological target: T1, PPAR-β/δ (Homo sapiens, UniProt Q03181)
T1 sequence (Q03181 1-441): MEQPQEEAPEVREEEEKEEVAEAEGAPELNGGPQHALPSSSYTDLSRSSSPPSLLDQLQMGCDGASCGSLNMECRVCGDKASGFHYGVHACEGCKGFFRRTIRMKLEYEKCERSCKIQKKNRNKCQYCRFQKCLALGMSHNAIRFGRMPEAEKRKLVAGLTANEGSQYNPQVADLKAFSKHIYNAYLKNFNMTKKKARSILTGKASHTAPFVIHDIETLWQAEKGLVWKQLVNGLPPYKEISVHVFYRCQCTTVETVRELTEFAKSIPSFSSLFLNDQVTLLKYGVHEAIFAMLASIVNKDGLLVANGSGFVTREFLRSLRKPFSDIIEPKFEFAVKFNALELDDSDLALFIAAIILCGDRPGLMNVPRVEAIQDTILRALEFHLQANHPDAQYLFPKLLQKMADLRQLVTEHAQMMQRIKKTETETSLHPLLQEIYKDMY
Assay: In vitro antagonist assay on PPAR-β/δ
Format: biochemical
Excerpt: The binding and activity of norbixin on PPARs remains controversial, thus, firstly, we performed competition experiments in vitro between norbixin and [^3H] GW7647, an agonist of PPAR-α, and [^3H] rosiglitazone, an agonist of PPAR-γ. […] Secondly, we tested whether norbixin could induce the transactivation of PPAR-α, -β/δ or -γ in the context of RPE cells in vitro by co-transfecting porcine RPE cells with a plasmid expressing each of the full-length PPAR isoforms and a plasmid expressing luciferase under the control of the PPAR response element. […] Then, we wanted to determine if norbixin could modulate the transactivation of PPAR isoforms induced by specific agonists.

pIC50: 5.00
SMILES: CC(/C=C/C=C(C)/C=C/C(=O)O)=C\C=C\C=C(C)\C=C\C=C(C)\C=C\C(=O)O (stereo in doubt) [norbixin, 9’-cis-norbixin]
